Data reported in patent US20180344646A1, “AMORPHOUS DISPERSION GRANULES AND ORAL DOSAGE FORMS” (PATHEON DEVELOPMENT SERVICES INC., priority 2015, published 2018).

Assay: In vitro non-sink dissolution, gastric-to-intestinal media transfer test
Type: physicochemical
Design: AUC free: concentration or dose not given beside the values; AUC total: unit not given here
Conditions: for AUC free: free drug; for AUC total: non-sink
[1] = Table 5 (nifedipine), Fasted Simulated Gastric (0.1 N HCl)
[2] = Table 5 (nifedipine), Fasted Simulated Intestinal (FaSSIF, pH 6.8)

AUC free (Table 2, Fasted Simulated Gastric (0.1 N HCl)): 0.0
AUC total (Table 2, Fasted Simulated Gastric (0.1 N HCl), 2 mg indomethacin per mL): 1020.4
AUC free (Table 2, Fasted Simulated Intestinal (FaSSIF, H 6.8)): 63324.8
AUC total (Table 2, Fasted Simulated Intestinal (FaSSIF, H 6.8), 1 mg indomethacin per mL): 81054.9
AUC free [1]: 68.9
AUC total [1]: 483.4
AUC free [2]: 1349.5
AUC total [2]: 2810.0
Structure (SMILES): COc1ccc2c(c1)c(CC(=O)O)c(C)n2C(=O)c1ccc(Cl)cc1 [indomethacin crystalline API, indomethacin]
